Source: patent US5248668A, “Use of purpurogallin and glycosides thereof in treating ischemia in mammals” (Wintek Consulting Ltd., priority 1992, dated 1993)

Columns and labels:
[1] = system: Rat kidney mesangial cells; assay: survival of rat kidney mesangial cells exposed to XOD and hypoxanthine (Table III); format: cell-based; conditions: for Mean Time Survival of Cells Exposed to XOD and Hypoxanthine: XOD 66.7 IU/L, hypoxanthine 0.5 mM, control 5.7
Excerpt: Rat kidney mesangial cells were isolated and tested with purpurogallin versus Trolox over the same range of concentrations, for protection against oxyradical damage using methods and procedures described by Wu et al., op cit. […]

rat livers = assay: partial hepatic ischemia-reperfusion in vivo; set-up: species or system Sprague-Dawley rats; conditions: for Mean Necrosis (% by weight): infused via penile vein, 24 h reperfusion, saline control 30.3, n=6
Protocol: In vivo studies were conducted on rat livers, to determine the effectiveness of purpurogallin as a cytoprotectant in partial hepatic ischemia-reperfusion.
There was used the same model as described in Wu et al. Hepatology 13: 575-580, (1991). In essence, the model involves the occlusion of blood vessels supplying to the left lateral, median, and Spigelian lobes of the rate liver by clamping the left portal vein, left hepatic artery and left bile duct. The right portal vein, hepatic artery and bile duct were left intact as an interal shunt. The occlusion was done in Sprague-Dawley rats (0.3-0.4 kg) which had fasted overnight. Approximately […] before the end of ischemia, either 3 mL of saline (control) or saline containing purpurogallin or Trolox (at the levels specified below) was infused into the animals via the penile vein over a 3 minute period. This was followed by reperfusion for 24 hours. Then, the extent of necrosis (based on wet weight of the liver) was quantified by a well established histochemical method (Frederiks et al., Exptl. Mol. Path 41: 119-125, 1984).

heart = heart ischemia-reperfusion in vivo; set-up: species or system New Zealand white rabbits
Protocol: In this example, the cytoprotective effect of purpurogallin in vivo, in heart ischemia-reperfusion in rabbits was examined.
New Zealand white rabbits (3.0-3.5 kg by weight) were anaesthetized with intramuscular injection of Ketamine (35 mg/kg) and Atravet (0.4 mg/kg), and intravenous injection of atropine (0.1 mg/kg).
After shaving the frontal area of the animal, anaesthesia was maintained by performing tracheotomy and ventilating the animal with positive pressure respiration using a Harvard small animal respirator and a gas mixture of 2.5% ethrane (or enflurane) in oxygen. A midline sternotomy was done. The pericardium was opened and the heart was exposed. The main branch of the anterior ventricular coronary artery that supplies blood to a great part of the left ventricle and apex in rabbits (also referred to as the left circumflex coronary artery) was temporarily ligated with a 5-0 silk thread for 1 hour at the site between 1/2 to 2/3 from apex to the atrioventricular groove. Approximately 1 minute before releasing the occlusion, a 30-ml bolus of 1 mM test solution was injected through the right external jugular vein. In control animals, a 30-mL bolus of normal saline was given instead of the test solution. […] After this period, the heart was harvested, stained for enzyme activity with a tetrazolium dye and the areas of necrosis determined by planimetry. […]

rat hepatocytes [2] = assay: time to necrose rat hepatocytes exposed to xanthine oxidase/hypoxanthine oxyradicals (FIG. 2); format: cell-based, rat (male Sprague-Dawley); conditions: 3 mM; XOD 66.7 IU/L, 2 mM hypoxanthine; control approximately 6 min
Protocol: In this example, experiments were conducted with rat hepatocytes, subjecting them to the action of free radicals in the presence and absence of purpurogallin, at various levels.
Hepatocytes were prepared from male Sprague-Dawley rats (400 g-450 g) according the method of Princen et al. J. Clin. Invest. 78: 1064-1071 (1986), except that the perfusion of the liver was done first with 250 mL of 0.5 mM EGTA and 10 MM HEPES buffer solution (pH 7.4) containing 142 mM NaCl and 6.7 mM KCL via gravity drip at 20 mL/min., then with 100 mL of magnesium-free Hank's Balanced Salt Solution containing 5 mM CaCl2 and 0.05% collagenase according to Seglen, Exp. Cell. Res. 82: 391-398 (1973). All other details were as described previously (Wu et al., Biochem. Cell Biol. 68, 1189-1194, 1990).
Free radical studies were done by removing the cell medium and adding to the cells 3 mL of 0.05M sodium phosphate-buffered saline (PBS) (pH 7.4) containing 66.7 IU/L of xanthine oxidase (XOD) and 2 mM hypoxanthine, the latter two being used to generate oxyradicals. The base for comparing the effect of different levels of purpurogallin was the time taken to cause necrosis in 95% of 10^5 cells of the same generation in each culture dish. […]
The results are shown graphically in FIG. 2. […] The data are expressed as means±SD (standard deviation). […]

rat hepatocytes [3] = assay: survival of rat hepatocytes after exposure to oxyradical (Table I); format: cell-based; conditions: for Mean Survival Time of 10^5 Rat Hepatocytes After Exposure to Oxyradical: control about 6.5 minutes
Excerpt: In further studies, culturing the rat hepatocytes and testing for oxyradical damage using purpurogallin and Trolox additives according to the procedure of Wu et al. op. cit., and Clin. Chem. 36: 1172-1173 (abstract), 1990, the results given below in Table I were obtained.

human erythrocytes = assay: protection of human erythrocytes from AAPH-induced lysis; format: cell-based; conditions: for IC50: Homo sapiens, Erythrocyte, 3 h, 100 mM AAPH, 10% RBC suspension, 37° C., 180 min, read-out: concentration of the agent that elicits 50% inhibition of cells lysis (IC50)
Protocol: In this example, experiments were conducted with human erythrocytes, subjecting them to free radicals generated by thermal activation of AAPH in a reaction mixture in the absence and in the presence of various amounts of purpurogallin or Trolox, to determine the cytoprotective capability of purpurogallin under these conditions.
Freshly obtained human erythrocytes were washed at least three times in saline with centrifugation at 1500 g×10 min. Then, a 20% suspension of RBC was prepared in the phosphate buffered saline (pH 7.4). (Miki et al., Arch. Biochem. Biophys. 258: 373-380, 1987).
The free radicals were generated by thermal activation of the azo-initiator2,2'-azo-bis(2-amidinopropane)HCl(AAPH). The reaction mixture (0.5 mL volumes) contained 10% red blood cell (RBC) suspension, AAPH (100 mM final level) and various levels of purpurogallin in 10 mM phosphate buffered saline. The above mixture was incubated at 37° C. for 180 min, while shaking gently. The, 35 μl aliquot of reaction mixture was taken out, diluted in 1.5 mL of saline, and centrifuged (1500 g for 10 min). The absorption of the supernatant at […] was read against a PBA blank. Similarly, the reaction mixture was treated with 1.5 mL of distilled water with sonication for 2 min to obtain complete hemolysis. Percent hemolysis was calculated according to Miki et al. (op. cit.).

water solubility = format: physicochemical; conditions: 4 mM prepared in PBS with brief sonication, pH adjusted to 7.40±0.05
[4] = system: Human ventricular myocytes; assay: survival of ventricular myocytes after exposure to oxyradical (Table II); format: cell-based; conditions: for Mean survival time of human ventricular myocytes after exposure to oxyradical: control 2 minutes, mean of 5-7 replicates
Excerpt: Human ventricular myocytes were isolated and tested with purpurogallin and Trolox for protection against oxyradical damage using the methods and procedures described by Wu et al., op cit.
Each result reported in Table II is the mean of 5-7 closely agreeing replicates.

SMILES | Mean Time Survival of Cells Exposed to XOD and Hypoxanthine ([1]; 0.13 mM) | Mean Time Survival of Cells Exposed to XOD and Hypoxanthine ([1]; 0.25 mM) | Mean Time Survival of Cells Exposed to XOD and Hypoxanthine ([1]; 0.50 mM) | Mean Time Survival of Cells Exposed to XOD and Hypoxanthine ([1]; 1.00 mM) | Mean Survival Time of 10^5 Rat Hepatocytes After Exposure to Oxyradical (rat hepatocytes [3]; 0.5 mM) | Mean Survival Time of 10^5 Rat Hepatocytes After Exposure to Oxyradical (rat hepatocytes [3]; 1.0 mM) | Mean Survival Time of 10^5 Rat Hepatocytes After Exposure to Oxyradical (rat hepatocytes [3]; 2.0 mM) | IC50 (human erythrocytes) | Mean survival time of human ventricular myocytes after exposure to oxyradical ([4]; 0.5 mM) | Mean survival time of human ventricular myocytes after exposure to oxyradical ([4]; 1.0 mM) | Mean survival time of human ventricular myocytes after exposure to oxyradical ([4]; 1.5 mM) | Mean survival time of human ventricular myocytes after exposure to oxyradical ([4]; 3.0 mM) | further results
O=c1c(O)cccc2cc(O)c(O)c(O)c12 [Purpurogallin, 2,3,4,6-tetrahydroxy-5H-benzocyclohepten5-one] | 11.5 min | 13.4 min | 16.0 min | 19.4 min | 18 min | 20 min | 31 min | 120 µM | 14 min | > 60 min | > 60 min | > 60 min | protection of kidney cells compared with Trolox ([1]; over all the levels examined): protects the kidney cells substantially better than Trolox; Mean Necrosis (% by weight) (rat livers; 4.4 μmoles/kg body weight, SD 4.6): 17.7 % by weight; % Salvage of Liver (rat livers; 4.4 μmoles/kg body weight, p value vs control <0.05): 42%; Mean Necrosis (% by weight) (rat livers; 8.8 μmoles/kg body weight, SD 4.9): 7.3 % by weight; % Salvage of Liver (rat livers; 8.8 μmoles/kg body weight, p value vs control 0.005): 76%; Mean Necrosis (% by weight) (rat livers; 18 μmoles/kg body weight, SD 1.1): 4.4 % by weight; % Salvage of Liver (rat livers; 18 μmoles/kg body weight, p value vs control 0.001): 86%; Mean % (± SD) organ necrosis in area at risk (heart; 8.6-10 μmoles/kg body weight (30-ml bolus of 1 mM), right external jugular vein, 3-hour reperfusion, saline control 46.6 ± 10, p <0.001): 11.8 ± 6.2%; Mean & organ salvage (heart; 8.6-10 μmoles/kg body weight, p <0.001 vs control): 75%; time taken to necrose 100,000 hepatocytes (rat hepatocytes [2]): up to 30 min; protection of rat hepatocytes compared with Trolox (rat hepatocytes [3]; at equivalent concentrations): clearly more protective of rat hepatocytes than Trolox; effectiveness versus Trolox in protecting cells from lysis (from IC50) (human erythrocytes; versus Trolox): six; water solubility (water solubility): partly water-soluble; protection of myocytes compared with Trolox ([4]; especially at levels greater than 0.5 mM): at least an order of magnitude more protective of myocytes than Trolox
Cc1c(C)c2c(c(C)c1O)CCC(C)(C(=O)O)O2 (centres unmarked) [Trolox, 6-hydroxy-2,5,7,8-tetramethylchroman-2-carboxylic acid, reference compound] | 6.4 min | 6.6 min | 7.4 min | 7.8 min | 12 min | 13 min | 16 min | ~740 µM | 3.5 min | 4.5 min | 4.8 min | 5.3 min | 
